Data as given in patent US20230414826A1, “FIBRIN HYDROGELS” (Mayo Foundation for Medical Education and Research, priority 2020, published 2023).
≈ marks a conversion by molar mass, not a printed value.

Assays:
[1] = target: T1, fibrinogen and thrombin (clinical standard from the manufacturer) (Homo sapiens, UniProt P02671+P02675+P02679); experiment: Fibrinogen clotting assay with coagulation analyzer (Clauss method), clinical fibrinogen standard; format: biochemical; conditions: clinical standard samples diluted in 1× citrate buffer + TB (4.58 mM), pH 7.4, 37° C.
T1 sequence (P02671 20-629 limits assumed): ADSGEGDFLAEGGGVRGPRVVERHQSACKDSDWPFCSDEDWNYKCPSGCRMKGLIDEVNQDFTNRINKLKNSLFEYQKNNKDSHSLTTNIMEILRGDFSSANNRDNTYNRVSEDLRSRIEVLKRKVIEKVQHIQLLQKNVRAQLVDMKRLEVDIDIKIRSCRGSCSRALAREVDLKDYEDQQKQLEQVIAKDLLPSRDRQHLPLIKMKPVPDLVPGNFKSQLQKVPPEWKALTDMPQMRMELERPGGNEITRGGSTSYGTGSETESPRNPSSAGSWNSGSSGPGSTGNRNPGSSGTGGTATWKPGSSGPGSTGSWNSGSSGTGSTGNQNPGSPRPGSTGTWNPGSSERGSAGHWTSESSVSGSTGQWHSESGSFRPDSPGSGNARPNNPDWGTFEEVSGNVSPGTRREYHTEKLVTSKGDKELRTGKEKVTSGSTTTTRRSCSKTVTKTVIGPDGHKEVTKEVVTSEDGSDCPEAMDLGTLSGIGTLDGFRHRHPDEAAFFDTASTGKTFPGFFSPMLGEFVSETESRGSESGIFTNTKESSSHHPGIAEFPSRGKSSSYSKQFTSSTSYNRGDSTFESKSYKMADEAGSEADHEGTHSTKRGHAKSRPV
T1 sequence (P02675 31-491): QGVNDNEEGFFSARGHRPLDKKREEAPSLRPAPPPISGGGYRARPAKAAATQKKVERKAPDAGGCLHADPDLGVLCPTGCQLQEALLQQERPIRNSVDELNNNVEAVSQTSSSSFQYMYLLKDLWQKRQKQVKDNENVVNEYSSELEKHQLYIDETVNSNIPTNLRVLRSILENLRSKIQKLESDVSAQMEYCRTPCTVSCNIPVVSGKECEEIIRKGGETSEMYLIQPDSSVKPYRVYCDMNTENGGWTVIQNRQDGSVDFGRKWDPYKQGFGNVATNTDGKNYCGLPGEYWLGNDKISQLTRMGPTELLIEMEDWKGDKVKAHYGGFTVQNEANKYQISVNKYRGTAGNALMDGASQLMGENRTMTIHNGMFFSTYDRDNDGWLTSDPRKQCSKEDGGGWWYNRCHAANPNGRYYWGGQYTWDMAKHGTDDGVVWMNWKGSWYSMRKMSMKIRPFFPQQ
T1 sequence (P02679 27-433 limits assumed): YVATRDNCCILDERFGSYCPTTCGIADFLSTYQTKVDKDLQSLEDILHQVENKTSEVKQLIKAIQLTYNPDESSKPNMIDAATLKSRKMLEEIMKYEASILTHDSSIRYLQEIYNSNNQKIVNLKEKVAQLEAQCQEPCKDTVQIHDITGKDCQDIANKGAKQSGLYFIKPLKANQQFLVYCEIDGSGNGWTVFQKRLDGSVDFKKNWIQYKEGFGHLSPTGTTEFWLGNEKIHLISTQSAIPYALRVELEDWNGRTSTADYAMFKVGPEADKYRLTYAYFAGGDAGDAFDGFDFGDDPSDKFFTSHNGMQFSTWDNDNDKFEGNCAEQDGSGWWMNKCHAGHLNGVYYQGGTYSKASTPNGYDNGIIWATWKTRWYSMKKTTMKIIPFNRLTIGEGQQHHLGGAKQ
Protocol: The effect of various chemical compounds on clotting time was determined. […] The chemical additives were added to either clinical fibrinogen standards (Stago; Parsippany NJ) or a 1:20 dilution of the Evicel Biologically Active Component 2 (Ethicon), which is a fibrinogen solution (60 mg/mL) and served as the various samples. The same lot of BAC2 was used within each experiment to minimize lot-lot variability.
The Clauss method was used to measure fibrin clotting time. The clotting assay was performed using the Stago STart® Coagulation Analyzer (Stago; Parsippany, NJ) per manufacturer's protocol. The Stago STart uses a mechanical, viscosity-based detection of clotting, independent of sample color and turbidity. Per the protocol, samples were diluted 1:20 in Owren-Koller buffer (Stago) and allowed to equilibrate for 5 minutes at 37° C. Each sample was loaded in a cuvette with a magnetic bead.
In efforts to improve the visibility of fibrin gels during surgical implantation, it was observed that the inclusion of TB in the gelation mixture improved handling of the liquid phase of the gelation reaction. […] A coagulation analyzer is a specialized clinical instrument that is used to quantify fibrinogen concentrations in patient blood samples via the Clauss Method (Clauss, Acta Haematol., 17:237-46 (1957)). […]

[2] = Solubility point in citrate buffer; format: physicochemical; conditions: aqueous buffer; 1× citrate buffer (20 mM sodium citrate, 100 mM sodium chloride pH 7.4)

## Cc1cc(-c2ccc(/N=N/c3c(S(=O)(=O)O)cc4cc(S(=O)(=O)O)cc(N)c4c3O)c(C)c2)ccc1/N=N/c1c(S(=O)(=O)O)cc2cc(S(=O)(=O)O)cc(N)c2c1O [TB, Trypan Blue]
[1]
  gelation time (clotting time): 14.6 ± 1.5 s
[2]
  solubility: 4.58 mM (≈ 4000 µg/mL)
